Laboratory results reported in patent publication US20110288086A1, “POLYCYCLIC QUINAZOLINES, PREPARATION THEREOF, AND USE THEREOF” (priority 2010, published 2011).
≈ marks a conversion by molar mass, not a printed value.

Tests used:
[1] = test system: A549 human lung cancer cells; test: Tumor cell inhibition ratio, CCK-8 kit, A549; conditions: A549, read-out: Antiproliferative effect (inhibition ratio) A549
Text: (§3) The inhibitory activities of the compounds on tumor cells in vitro

[2] = test system: PANC-1 human pancreatic cancer cells; test: Tumor cell inhibition ratio, CCK-8 kit, PANC-1; conditions: PANC-1, read-out: Antiproliferative effect (inhibition ratio) PANC-1
Text: as §3

[3] = test system: Hep3B2. 1-7 human hepatoma carcinoma cells; test: Tumor cell IC50, CCK-8 kit, Hep3B; assay type: cell-based
Text: (§1) The inhibitory activities of the compounds on tumor cells (IC50) in vitro
(§2) The IC50 (IC50, unit: μg/ml) values of the compounds on Hut78 T-Lymphocytic Leukemia cells, Jurkat E6-1 human T-cell lymphoma, PANC-1 human pancreatic cancer cells, A549 human lung cancer cells, K562 human chronicity marrow leukemic cells, Hep3B2. 1-7 human hepatoma carcinoma cells, MDA-MB-435s human breast carcinoma cells, Colo320 human rectal cancer cells, PC-3 human carcinoma of prostate, and HepG2 human hepatoma carcinoma cells were determined using a CCK-8 kit. Erlotinib hydrochloride was used as the positive control drug.

[4] = test system: MDA-MB-435s human breast carcinoma cells; test: Tumor cell inhibition ratio, CCK-8 kit, MDA-MB-435s; conditions: read-out: Antiproliferative effect (inhibition ratio) 435s
Text: as §3

[5] = test system: Jurkat E6-1 human T-cell lymphoma; test: Tumor cell IC50, CCK-8 kit, Jurkat E6-1; assay type: cell-based; conditions: E6-1 cells
Text: as §1, §2

[6] = test system: A549 human lung cancer cells; test: Tumor cell IC50, CCK-8 kit, A549; assay type: cell-based
Text: as §1, §2

[7] = test system: Colo320 human rectal cancer cells; test: Tumor cell IC50, CCK-8 kit, Colo320; assay type: cell-based; conditions: COLO 320
Text: as §1, §2

[8] = Acute Toxicity Study; conditions: in vivo; preliminary screening, Bliss statistical method
Method: The acute toxicity experiments were carried out according to the methods disclosed in the book of Modern Pharmacological Methods, edited chiefly by Zhang Jun-Tian.

[9] = target: EGFR tyrosine kinase (Homo sapiens, UniProt P00533); test: EGFR tyrosine kinase inhibition in vitro (Invitrogen EGFR inhibitor screening kit PV3193)
Sequence of EGFR tyrosine kinase (P00533 25-1210): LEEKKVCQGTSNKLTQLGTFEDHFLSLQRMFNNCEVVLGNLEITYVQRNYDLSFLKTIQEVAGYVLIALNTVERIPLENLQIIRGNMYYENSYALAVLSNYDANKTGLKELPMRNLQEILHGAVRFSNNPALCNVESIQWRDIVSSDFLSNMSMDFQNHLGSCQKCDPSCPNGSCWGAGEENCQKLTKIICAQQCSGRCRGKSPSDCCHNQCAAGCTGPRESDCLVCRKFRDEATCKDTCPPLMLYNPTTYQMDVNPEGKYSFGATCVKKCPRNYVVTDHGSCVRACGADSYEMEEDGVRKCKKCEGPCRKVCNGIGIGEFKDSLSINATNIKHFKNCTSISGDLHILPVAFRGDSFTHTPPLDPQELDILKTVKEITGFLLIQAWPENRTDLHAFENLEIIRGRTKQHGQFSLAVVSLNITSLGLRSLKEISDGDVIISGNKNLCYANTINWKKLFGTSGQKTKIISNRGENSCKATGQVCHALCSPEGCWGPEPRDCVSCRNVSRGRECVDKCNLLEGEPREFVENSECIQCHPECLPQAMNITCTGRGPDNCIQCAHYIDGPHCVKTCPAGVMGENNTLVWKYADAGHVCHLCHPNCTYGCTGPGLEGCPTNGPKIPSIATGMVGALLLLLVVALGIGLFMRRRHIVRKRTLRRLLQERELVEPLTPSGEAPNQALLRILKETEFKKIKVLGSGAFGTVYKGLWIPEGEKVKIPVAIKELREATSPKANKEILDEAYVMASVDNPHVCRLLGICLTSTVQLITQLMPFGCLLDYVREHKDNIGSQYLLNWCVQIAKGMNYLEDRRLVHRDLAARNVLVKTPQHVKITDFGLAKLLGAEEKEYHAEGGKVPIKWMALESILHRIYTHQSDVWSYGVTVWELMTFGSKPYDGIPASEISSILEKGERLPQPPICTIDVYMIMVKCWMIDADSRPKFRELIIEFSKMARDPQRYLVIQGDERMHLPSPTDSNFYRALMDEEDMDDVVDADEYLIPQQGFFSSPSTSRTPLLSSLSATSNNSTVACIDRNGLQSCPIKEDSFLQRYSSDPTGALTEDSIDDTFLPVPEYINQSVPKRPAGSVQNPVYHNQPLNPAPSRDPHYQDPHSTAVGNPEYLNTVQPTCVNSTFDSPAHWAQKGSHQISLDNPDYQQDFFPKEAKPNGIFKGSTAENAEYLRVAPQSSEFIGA
Text: The inhibitory activities of EGFR tyrosine kinase in vitro
Erlotinib hydrochloride was used as a positive control drug.

[10] = test system: Jurkat E6-1 human T-cell lymphoma; test: Tumor cell inhibition ratio, CCK-8 kit, Jurkat E6-1; conditions: Jurkat E6.1, read-out: Antiproliferative effect (inhibition ratio) E6-1
Text: as §3

[11] = target: T1, aurora kinase B (Homo sapiens, UniProt Q96GD4); test: Aurora kinase B inhibition in vitro (Invitrogen aurora kinase screening kit PV3174); assay type: biochemical
T1 construct: purchased Invitrogen PV3174
T1 sequence (Q96GD4 whole entry): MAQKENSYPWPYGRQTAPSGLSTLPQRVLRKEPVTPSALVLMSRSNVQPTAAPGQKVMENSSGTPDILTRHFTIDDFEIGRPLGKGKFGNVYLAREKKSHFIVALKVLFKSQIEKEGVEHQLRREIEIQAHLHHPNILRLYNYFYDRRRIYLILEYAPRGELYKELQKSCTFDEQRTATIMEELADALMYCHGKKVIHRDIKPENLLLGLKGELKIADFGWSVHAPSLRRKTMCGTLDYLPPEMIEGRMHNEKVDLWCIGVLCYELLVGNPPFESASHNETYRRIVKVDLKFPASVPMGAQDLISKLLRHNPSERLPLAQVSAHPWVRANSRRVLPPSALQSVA

[12] = test system: Hut78 T-Lymphocytic Leukemia cells; test: Tumor cell inhibition ratio, CCK-8 kit, Hut78; conditions: Homo sapiens, HuT78, read-out: Antiproliferative effect (inhibition ratio) Hut-78
Text: as §3

[13] = test system: MDA-MB-435s human breast carcinoma cells; test: Tumor cell IC50, CCK-8 kit, MDA-MB-435s; assay type: cell-based; conditions: 435s cells
Text: as §1, §2

[14] = test system: PC-3 human carcinoma of prostate; test: Tumor cell IC50, CCK-8 kit, PC-3; assay type: cell-based; conditions: PC-3 cells
Text: as §1, §2

[15] = test system: K562 human chronicity marrow leukemic cells; test: Tumor cell IC50, CCK-8 kit, K562; assay type: cell-based
Text: as §1, §2

[16] = test system: K562 human chronicity marrow leukemic cells; test: Tumor cell inhibition ratio, CCK-8 kit, K562; conditions: K562, read-out: Antiproliferative effect (inhibition ratio) K562
Text: as §3

[17] = test system: PC-3 human carcinoma of prostate; test: Tumor cell inhibition ratio, CCK-8 kit, PC-3; conditions: read-out: Antiproliferative effect (inhibition ratio) PC-3
Text: as §3

[18] = test system: PANC-1 human pancreatic cancer cells; test: Tumor cell IC50, CCK-8 kit, PANC-1; assay type: cell-based; conditions: PANC-1 cells
Text: as §1, §2

[19] = test system: Hut78 T-Lymphocytic Leukemia cells; test: Tumor cell IC50, CCK-8 kit, Hut78; assay type: cell-based; conditions: Homo sapiens, Hut-78 cells
Text: as §1, §2

[20] = test system: Hep3B2.1-7 human hepatoma carcinoma cells; test: Tumor cell inhibition ratio, CCK-8 kit, Hep3B; conditions: read-out: Antiproliferative effect (inhibition ratio) Hep3B
Text: as §3

[21] = test system: Colo320 human rectal cancer cells; test: Tumor cell inhibition ratio, CCK-8 kit, Colo320; conditions: COLO 320, read-out: Antiproliferative effect (inhibition ratio) Colo320
Text: as §3

Row | Structure (SMILES) | inhibition at 10 µM [1] [%] | inhibition at 100 µM [1] [%] | inhibition at 10 µM [2] [%] | inhibition at 100 µM [2] [%] | IC50 [3] [µg/mL] | inhibition at 10 µM [4] [%] | inhibition at 100 µM [4] [%] | IC50 [5] [µg/mL] | IC50 [6] [µg/mL] | IC50 [7] [µg/mL] | LD50 [8] [mg/kg] | The inhibition ratio of the compound on EGFR(%) ([9]; 40 μM) | The inhibition ratio of the compound on EGFR(%) ([9]; 200 μM) | inhibition at 10 µM [10] [%] | inhibition at 100 µM [10] [%] | The inhibition ratio of the compound on Aurora B(%) ([11]; 40 μM) | The inhibition ratio of the compound on Aurora B(%) ([11]; 200 μM) | inhibition at 10 µM [12] [%] | inhibition at 100 µM [12] [%] | IC50 [13] [µg/mL] | other results
1 | COCCOc1cc2c(cc1OCCOC)C1=Nc3cc(COS(C)(=O)=O)cc([N+](=O)[O-])c3CN1C=N2.Cl [Compound V-20, mesylate-{9-nitro-2,3-bis(2-methoxyethoxy)-8H-quinazolino[4,3-b]quinazoline-11-methanol}ester hydrochloride] | 55 | 90.7 | 54.8 | 88.2 | 71.4 | 65.7 | 93.9 | 0.05 | 12.1 | 13.1 | 750 | 59.9 | 98.4 | 57.9 | 95.6 | 58.9 | 96.4 | 52.3 | 82.1 | 16.8 | IC50 [14]: 22.7 µg/mL; IC50 [15]: 10.1 µg/mL; inhibition at 10 µM [16]: 40.7%; inhibition at 100 µM [16]: 97.4%; inhibition at 10 µM [17]: 46.8%; inhibition at 100 µM [17]: 75.2%; IC50 [18]: 3.72 µg/mL; IC50 [19]: 55.3 µg/mL; inhibition at 10 µM [20]: 60.7%; inhibition at 100 µM [20]: 92.2%; inhibition at 10 µM [21]: 66.9%; inhibition at 100 µM [21]: 92.3%
2 | COCCOc1cc2c(cc1OCCOC)C1=Nc3cc(Cl)ccc3C(C)N1C=N2.O=C(O)CC(O)C(=O)O (stereo not drawn) [Compound V-22, 11-chloro-8-methyl-2,3-bis(2-methoxyethoxy)-8H-quinazolino[4,3-b]quinazoline malate] | 54.6 | 96.2 | 60.9 | 95.4 | 14.4 | 63.4 | 94.1 | 13.3 | 9.87 | 4.67 | 1340 | 63.2 | 95.6 | 67 | 98 | 57.2 | 95.6 | 54.1 | 94.6 | 6.18 | IC50 [14]: 7.69 µg/mL; IC50 [15]: 19.6 µg/mL; inhibition at 10 µM [16]: 23.1%; inhibition at 100 µM [16]: 88.8%; inhibition at 10 µM [17]: 64%; inhibition at 100 µM [17]: 97%; IC50 [18]: 84.3 µg/mL; IC50 [19]: 11.4 µg/mL; inhibition at 10 µM [20]: 62.3%; inhibition at 100 µM [20]: 90.7%; inhibition at 10 µM [21]: 43.8%; inhibition at 100 µM [21]: 99%
3 | CS(=O)(=O)CCNCc1ccc(-c2ccc3c(c2)C2=Nc4ccc(OCc5cccc(F)c5)c(Cl)c4CN2C=N3)o1 [Compound V-33, N-((5-(9-chloro-10-(3-fluorobenzyloxy)-8H-quinazolino[4,3-b]quinazoline-2-yl)furan-2-yl)methyl)-2-(methylsulfonyl)ethylamine] | 48.1 | 86.1 | 50.3 | 88 | 22.7 (≈ 38.3 µM) | 62.7 | 99.5 | 15.4 (≈ 25.9 µM) | 0.05 (≈ 0.0843 µM) | 7.83 (≈ 13.2 µM) | 2840 | 64.3 | 97.9 | 41.6 | 90.8 | 54.6 | 93.7 | 61 | 92.8 | 10.3 (≈ 17.4 µM) | IC50 [14]: 40.7 µg/mL (≈ 68.6 µM); IC50 [15]: 62.6 µg/mL (≈ 105 µM); inhibition at 10 µM [16]: 40.5%; inhibition at 100 µM [16]: 86%; inhibition at 10 µM [17]: 16.5%; inhibition at 100 µM [17]: 78.2%; IC50 [18]: 1.97 µg/mL (≈ 3.32 µM); IC50 [19]: 13.4 µg/mL (≈ 22.6 µM); inhibition at 10 µM [20]: 51.3%; inhibition at 100 µM [20]: 86.5%; inhibition at 10 µM [21]: 61.6%; inhibition at 100 µM [21]: 96.3%
